According to patent publication US11400081B2, “Compounds” (The University of Sheffield, priority 2017, dated 2022):

These compounds were tested against T1, AM2 receptor (CALCRL+RAMP3) (Homo sapiens, UniProt O60896+Q16602) (assay: AM2 receptor inhibition, LANCE TR-FRET cAMP agonist-antagonist competition assay). Details: inhibition of AM induced cAMP activation; 1321N1 cells transfected with CALCRL+RAMP3; read-out: AM2 pIC50 (converted).
T1 construct: host or cells: 1321N1
Type: cell-based
Method: Compounds were assessed for their ability to inhibit ligand-induced elevations of cAMP, using the Perkin Elmer LANCE cAMP assay using commercially-available cells expressing a specific receptor of interest using the following general procedure:
Compounds were prepared in dimethyl sulfoxide (DMSO—99.9% pure) (Sigma Aldrich, Cat #: D4540) added to powder stocks to produce a 20 mM solution (100% DMSO) that was sonicated at 37° C. for 10 minutes to fully dissolve the compounds. The 20 mM stocks were diluted further in DMSO to produce a 2 mM solution that was sonicated at 37° C. for 10 minutes. 2 mM stocks were dissolved in assay/stimulation buffer to produce a 400 μM solution that was sonicated at 37° C. for 10 minutes for all cAMP assays. All stocks were stored at −20° C. Then serial dilution (Dilution factor 10) was performed to achieve the desire experimental concentrations.
Competition assays were performed according to the manufactures instructions using LANCE® TR-FRET cAMP assay kit (Perkin Elmer, Cat #: AD0264). Serial dilutions (3 μl/well) of the molecules were plated in a 384-well OptiPlate (Perkin Elmer, Cat #: 6007299) in duplicates. Appropriate controls (100% stimulation: Forskolin and 0% stimulation: Vehicle control) (6 μl/well) were included in each plate for data normalization. Following the compound addition, 6 μl of G-protein coupled receptor overexpressing cells/Alexa Fluor antibody solution (1:100 dilution) was added in each well at a desired density of 2500 cells/well. The overexpressing cell lines were purchased from DiscoveRx, Birmingham, UK. After spinning the plate at 1000 rpm for 1 minute and vortexing briefly, the cells were pre-incubated with the compounds for 30 minutes at room temperature (covered). Then 3 μl of the equivalent peptide ligand (EC50 dose) was added to all the wells except vehicle and forskolin controls. The plate were then spun down at 1000 rpm for 1 minute and once finished they were vortexed briefly and covered. Cells were stimulated in the presence of the ligands for 15 minutes at room temperature. After stimulation 12 μl of detection mix (Europium-Chelate streptavidin/biotinylated cAMP tracer solution) was added to all wells and incubated for 60 minutes at room temperature. The plate was then read on the Enspire multimode Plate reader (Perkin Elmer), at; 320/340 nm excitation and 615/665 nm emission was recorded.
• 28 mL Hank's Balanced salt solution (+MgCl2, +CaCl2)—(Thermo Fisher Cat #:14170112) • 150 μl HEPES (1M)—(Thermo Fisher Cat #:15630080) • 400 μl Stabilizer (DTPA) Purified BSA (7.5%)—(Perkin Elmer, Cat #: CR84-100) • 60 μl IBMX (250 mM)—(Sigma Aldrich, Cat #: 15879) Specific cAMP/Agonist-Antagonist Competition Assays
The ability of a compound to inhibit the AM induced cAMP activation in AM2 receptor-expressing cells (1321N1 cells transfected with CALCRL+RAMP3, sourced from DiscoverX catalogue number 95-0169C6) was assessed using the protocol above.

T1 sequence (Q16602 23-461): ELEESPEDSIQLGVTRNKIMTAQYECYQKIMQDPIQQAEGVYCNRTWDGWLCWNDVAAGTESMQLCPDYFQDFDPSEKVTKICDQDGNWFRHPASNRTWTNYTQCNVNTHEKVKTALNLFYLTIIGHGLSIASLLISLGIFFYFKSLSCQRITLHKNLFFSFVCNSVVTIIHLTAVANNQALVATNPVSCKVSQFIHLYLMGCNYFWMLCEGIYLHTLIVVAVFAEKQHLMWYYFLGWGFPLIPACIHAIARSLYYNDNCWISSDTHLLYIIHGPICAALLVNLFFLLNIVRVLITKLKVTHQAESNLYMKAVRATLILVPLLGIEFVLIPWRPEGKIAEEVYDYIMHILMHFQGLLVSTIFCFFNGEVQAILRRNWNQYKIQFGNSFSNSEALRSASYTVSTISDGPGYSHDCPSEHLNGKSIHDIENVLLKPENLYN
T1 sequence (O60896 24-148): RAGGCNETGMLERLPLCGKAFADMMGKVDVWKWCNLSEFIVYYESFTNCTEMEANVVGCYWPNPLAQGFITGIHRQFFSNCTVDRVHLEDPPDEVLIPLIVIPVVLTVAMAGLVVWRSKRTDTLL

Row | Compound | IC50 [nM]
1 | CNCc1ccccc1CN(CC(=O)Nc1ccc2c(c1)CC1(C2)C(=O)Nc2ncccc21)C(=O)N1CCC2(CCNCC2)CC1 (centres unmarked) [Example 89, N-(2-((Methylamino)methyl)benzyl)-N-(2-oxo-2-((2′-oxo-1,1′,2′,3-tetrahydrospiro[indene-2,3′-pyrrolo[2,3-b]pyridin]-5-yl)amino)ethyl)-3,9-diazaspiro[5.5]undecane-3-carboxamide] | 87.1
2 | CNCc1ccccc1CN(CC(=O)Nc1ccc2c(c1)CC1(C2)C(=O)Nc2ncccc21)C(=O)C1CCCN1C(C)=O (centres unmarked) [Example 69, 1-Acetyl-N-[[2-(methylaminomethyl)phenyl]methyl]-N-[2-oxo-2-[(2-oxospiro[1H-pyrrolo[2,3-b]pyridine-3,2′-indane]-5′-yl)amino]ethyl]pyrrolidine-2-carboxamide] | 129
3 | CNCc1ccccc1CN(CC(=O)Nc1ccc2c(c1)C[C@@]1(C2)C(=O)Nc2ncccc21)C(=O)C12CC3CC(CC(C3)C1)C2 [Example 92, N-[[2-(methylaminomethyl)phenyl]methyl]-N-[2-oxo-2-[[(3R)-2-oxospiro[1H-pyrrolo[2,3-b]pyridine-3,2′-indane]-5′-yl]amino]ethyl]adamantane-1-carboxamide 2,2,2-trifluoroacetate] | 79.4
4 | CNC(C)c1ccccc1CN(CC(=O)Nc1ccc2c(c1)CC1(C2)C(=O)Nc2ncccc21)C(=O)C(C)(C)C (centres unmarked) [Example 23, N-(2-(1-(Methylamino)ethyl)benzyl)-N-(2-oxo-2-((2′-oxo-1,1′,2′,3-tetrahydrospiro[indene-2,3′-pyrrolo[2,3-b]pyridin]-5-yl)amino)ethyl)pivalamide] | 13.2
5 | CNCc1ccccc1CN(CC(=O)Nc1ccc2c(c1)CC1(C2)C(=O)Nc2ncccc21)C(=O)c1cscn1 (centres unmarked) [Example 60, N-(2-((Methylamino)methyl)benzyl)-N-(2-oxo-2-((2′-oxo-1,1′,2′,3-tetrahydrospiro[indene-2,3′-pyrrolo[2,3-b]pyridin]-5-yl)amino)ethyl)thiazole-4-carboxamide] | 7.08
6 | CNCc1ccccc1CN(CC(=O)Nc1ccc2c(c1)CC1(C2)C(=O)Nc2ncccc21)C(=O)NC(C)C (centres unmarked) [Example 84, 2-(3-Isopropyl-1-(2-((methylamino)methyl)benzyl)ureido)-N-(2′-oxo-1,1′,2′,3-tetrahydrospiro[indene-2,3′-pyrrolo[2,3-b]pyridin]-5-yl)acetamide] | 52.5
7 | COCCNCc1ccccc1CN(CC(=O)Nc1ccc2c(c1)CC1(C2)C(=O)Nc2ncccc21)C(=O)C(C)(C)C (centres unmarked) [Example 18, N-(2-(((2-Methoxyethyl)amino)methyl)benzyl)-N-(2-oxo-2-((2′-oxo-1,1′,2′,3-tetrahydrospiro[indene-2,3′-pyrrolo[2,3-b]pyridin]-5-yl)amino)ethyl)pivalamide] | 33.1
8 | CNCc1ccccc1CN(CC(=O)Nc1ccc2c(c1)CC1(C2)C(=O)Nc2ncccc21)C(=O)c1ncsc1C (centres unmarked) [Example 62, 5-Methyl-N-(2-((methylamino)methyl)benzyl)-N-(2-oxo-2-((2′-oxo-1,1′,2′,3-tetrahydrospiro[indene-2,3′-pyrrolo[2,3-b]pyridin]-5-yl)amino)ethyl)thiazole-4-carboxamide] | 42.7
9 | CNCc1ccccc1CN(CC(=O)Nc1ccc2c(c1)CC1(C2)C(=O)Nc2ncccc21)C(=O)C1CCCC1 (centres unmarked) [Example 65, N-(2-((methylamino)methyl)benzyl)-N-(2-oxo-2-((2′-oxo-1,1′,2′,3-tetrahydrospiro[indene-2,3′-pyrrolo[2,3-b]pyridin]-5-yl)amino)ethyl)cyclopentanecarboxamide] | 2.82
10 | CC(C)(C)C(=O)N(CC(=O)Nc1ccc2c(c1)CC1(C2)C(=O)Nc2ncccc21)Cc1ccccc1CNCCO (centres unmarked) [Example 13, N-(2-(((2-Hydroxyethyl)amino)methyl)benzyl)-N-(2-oxo-2-((2′-oxo-1,1′,2′,3-tetrahydrospiro[indene-2,3′-pyrrolo[2,3-b]pyridin]-5-yl)amino)ethyl)pivalamide] | 33.1
11 | CNCc1ccccc1CN(CC(=O)Nc1ccc2c(c1)C[C@@]1(C2)C(=O)Nc2ncccc21)C(=O)C1(C(F)(F)F)CCCC1 [Example 94, N-[[2-(methylaminomethyl)phenyl]methyl]-N-[2-oxo-2-[[(3R)-2-oxospiro[1H-pyrrolo[2,3-b]pyridine-3,2′-indane]-5′-yl]amino]ethyl]-1-(trifluoromethyl)cyclopentanecarboxamide 2,2,2-trifluoroacetate] | 17.8
12 | CNCc1ccccc1CN(CC(=O)Nc1cc2c(cc1C)CC1(C2)C(=O)Nc2ncccc21)C(=O)C(C)(C)C (centres unmarked) [Example 40, N-(2-((5-Methyl-2′-oxo-1,1′,2′,3-tetrahydrospiro[indene-2,3′-pyrrolo[2,3-b]pyridin]-6-yl)amino)-2-oxoethyl)-N-(2-((methylamino)methyl)benzyl)pivalamide] | 7.41

Results, then the compound that gave them:

Row | IC50 [nM] | Compound
13 | 2.82 | O=C(CN(Cc1ccccc1CN1CCC1)C(=O)C1CCCC1)Nc1ccc2c(c1)CC1(C2)C(=O)Nc2ncccc21 (centres unmarked) [Example 46, N-(2-(Azetidin-1-ylmethyl)benzyl)-N-(2-oxo-2-((2′-oxo-1,1′,2′,3-tetrahydrospiro[indene-2,3′-pyrrolo[2,3-b]pyridin]-5-yl)amino)ethyl)cyclopentanecarboxamide]
14 | 269 | CNCc1ccccc1CN(CC(=O)Nc1ccc2c(c1)CC1(C2)C(=O)Nc2ncccc21)C(=O)COC (centres unmarked) [Example 57, 2-Methoxy-N-(2-((methylamino)methyl)benzyl)-N-(2-oxo-2-((2′-oxo-1,1′,2′,3-tetrahydrospiro[indene-2,3′-pyrrolo[2,3-b]pyridin]-5-yl)amino)ethyl)acetamide]
15 | 245 | O=C(CN(Cc1ccccc1CN1CCC1)C(=O)CC(F)(F)F)Nc1ccc2c(c1)CC1(C2)C(=O)Nc2ncccc21 (centres unmarked) [Example 45, N-(2-(Azetidin-1-ylmethyl)benzyl)-3,3,3-trifluoro-N-(2-oxo-2-((2′-oxo-1,1′,2,3-tetrahydrospiro[indene-2,3′-pyrrolo[2,3-b]pyridin]-5-yl)amino)ethyl)propanamide]
16 | 7.41 | CNCc1ccccc1CN(CC(=O)Nc1ccc2c(c1)CC1(C2)C(=O)Nc2ncccc21)C(=O)N1CCCC1 (centres unmarked) [Example 81, N-(2-((Methylamino)methyl)benzyl)-N-(2-oxo-2-((2′-oxo-1,1′,2′,3-tetrahydrospiro[indene-2,3′-pyrrolo[2,3-b]pyridin]-5-yl)amino)ethyl)pyrrolidine-1-carboxamide]
17 | 85.1 | O=C(CN(Cc1ccccc1CN1CCC1)C(=O)c1ccccc1)Nc1ccc2c(c1)CC1(C2)C(=O)Nc2ncccc21 (centres unmarked) [Example 51, N-(2-(Azetidin-1-ylmethyl)benzyl)-N-(2-oxo-2-((2′-oxo-1,1′,2′,3-tetrahydrospiro[indene-2,3′-pyrrolo[2,3-b]pyridin]-5-yl)amino)ethyl)benzamide]
18 | 74.1 | COC(=O)N(CC(=O)Nc1ccc2c(c1)CC1(C2)C(=O)Nc2ncccc21)Cc1ccccc1CN1CCC1 (centres unmarked) [Example 50, Methyl 2-(azetidin-1-ylmethyl)benzyl(2-oxo-2-((2′-oxo-1,1′,2′,3-tetrahydrospiro[indene-2,3′-pyrrolo[2,3-b]pyridin]-5-yl)amino)ethyl)carbamate]
19 | 43.7 | CNCc1ccccc1CN(CC(=O)Nc1ccc2c(c1)CC1(C2)C(=O)Nc2ncccc21)C(=O)N1CCCCC1 (centres unmarked) [Example 87, N-(2-((Methylamino)methyl)benzyl)-N-(2-oxo-2-((2′-oxo-1,1′,2′,3-tetrahydrospiro[indene-2,3′-pyrrolo[2,3-b]pyridin]-5-yl)amino)ethyl)piperidine-1-carboxamide]
20 | 15.5 | CC1(C(=O)N(CC(=O)Nc2ccc3c(c2)CC2(C3)C(=O)Nc3ncccc32)Cc2ccccc2CN2CCC2)CC1 (centres unmarked) [Example 47, N-(2-(Azetidin-1-ylmethyl)benzyl)-1-methyl-N-(2-oxo-2-((2′-oxo-1,1′,2′,3-tetrahydrospiro[indene-2,3′-pyrrolo[2,3-b]pyridin]-5-yl)amino)ethyl)-cyclopropanecarboxamide]
